Experimental data as given in PMC4192606, “Agrobacterium Uses a Unique Ligand-Binding Mode for Trapping Opines and Acquiring A Competitive Advantage in the Niche Construction on Plant Host” (PLoS Pathogens, 2014).
Several values for one entry are separate records, joined by “and”; a condition that tells them apart may be missing. Equal values may be shown once.

Key:
[1] = target: T1, NocT (Agrobacterium fabrum, UniProt P35120); test: KD measurement by isothermal titration calorimetry (ITC), wild-type NocT; format: binding, Agrobacterium tumefaciens C58
T1 construct: The X-ray structures of the mature free-liganded NocT; made in house; host or cells: E. coli Rosetta pLysS
T1 sequence (P35120 26-283): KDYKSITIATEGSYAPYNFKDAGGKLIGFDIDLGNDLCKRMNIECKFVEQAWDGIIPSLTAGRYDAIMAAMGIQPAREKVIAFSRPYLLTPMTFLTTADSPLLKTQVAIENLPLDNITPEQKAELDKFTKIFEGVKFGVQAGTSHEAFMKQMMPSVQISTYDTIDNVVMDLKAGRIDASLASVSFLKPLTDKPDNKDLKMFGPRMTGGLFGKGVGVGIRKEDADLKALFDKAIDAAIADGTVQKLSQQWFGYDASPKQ
Experimental: ITC experiments were performed with an ITC200 isothermal titration calorimeter from MicroCal Llc (Northampton, MA). The experiments were carried out at 20°C. Protein concentration in the microcalorimeter cell (0.2 ml) varied from 100 to 150 µM. Nineteen injections of 2 µl of the ligand solution concentration from 1.5 to 1.6 mM were performed at intervals of 180 s while stirring at 1000 rpm. The experimental data were fitted to theoretical titration curves with software supplied by MicroCal (ORIGIN). This software uses the relationship between the heat generated by each injection and ΔH (enthalpy change in Kcal.mol^−1), Ka (the association binding constant in M^−1), n (the number of binding sites), total protein concentration and free and total ligand concentrations.

[2] = target: T1, NocT; test: KD measurement by intrinsic protein fluorescence titration, wild-type NocT; format: binding, Agrobacterium tumefaciens C58; conditions: 25°C, 25 mM Tris-HCl pH 8.0, 150 mM NaCl, 5 µM protein, triplicates; for Kd: read-out: KD (fluorescence titration), NocT wt
Experimental: (§1) Ligand-NocT interaction was monitored by autofluorescence by exciting the protein at a wavelength of 295 nm and monitoring the quenching of fluorescence emission of tryptophan residues at 340 nm. All experiments were performed at 25°C in 25 mM Tris-HCl pH 8.0 and 150 mM NaCl with a fixed amount of proteins (5 µM) and increasing concentrations of ligand using a SpectraMax M5 microplate reader (Molecular Devices). […] Fluorescence measurements were done in triplicates. The data were analysed using Origin 7 software and fitted to the equation f = ΔFluorescencemax * abs(x)/(KD+abs(x)).

[3] = tested on: A. tumefaciens C58 nocT mutant; test: Growth assay on opine as sole carbon and nitrogen source, nocT mutant; format: cell-based, Agrobacterium tumefaciens C58; conditions: opine as sole source of carbon and nitrogen at 3 mM, AB medium, OD600 after 24 hours
Source text: (§2) The A. tumefaciens C58 derivatives carrying pTi-accR::Gm and pTi::Gm (used as C58-control in plant assay) in which the genes accR (atu6138) and atu6147 were disrupted by inserting a gentamicin resistance cassette were already constructed. The A. tumefaciens C58 derivatives harbouring the Ti-plasmid pTi-nos::Km, pTi-ocd::Gm, pTi-nocT::Gm were obtained by insertion of a gentamicin (Gm) or kanamycin (Km) resistance cassette into the genes nos ( = atu6015), ocd ( = atu6016), and nocT ( = atu6027) as described previously.
(§3) A. tumefaciens was cultivated at 30°C in Agrobacterium broth (AB) minimal medium supplemented with ammonium chloride (1 g/L) and mannitol (2 g/L) except when an alternative source of carbon and nitrogen is indicated, or in Luria-Bertani modified medium (LBm; NaCl 5 g/L). In growth assay nopaline and pyronopaline were added as a sole carbon and nitrogen source at 3 mM (ca 1 g/L). The antibiotics gentamycin and kanamycin were added at 25 µg/mL and 50 µg/mL, respectively.

[4] = tested on: A. tumefaciens C58 ocd mutant; test: Growth assay on opine as sole carbon and nitrogen source, ocd mutant; format: cell-based, Agrobacterium tumefaciens C58; conditions: opine as sole source of carbon and nitrogen at 3 mM, AB medium, OD600 after 24 hours
Source text: as §2, §3

[5] = target: T2, NocT-M117N (Agrobacterium fabrum, UniProt P35120, M117N); test: KD measurement by fluorescence titration, NocT-M117N mutant; format: binding, Agrobacterium tumefaciens C58
T2 construct: The X-ray structures of the mature free-liganded NocT; made in house; host or cells: E. coli Rosetta pLysS
T2 sequence (P35120 26-283 M117N): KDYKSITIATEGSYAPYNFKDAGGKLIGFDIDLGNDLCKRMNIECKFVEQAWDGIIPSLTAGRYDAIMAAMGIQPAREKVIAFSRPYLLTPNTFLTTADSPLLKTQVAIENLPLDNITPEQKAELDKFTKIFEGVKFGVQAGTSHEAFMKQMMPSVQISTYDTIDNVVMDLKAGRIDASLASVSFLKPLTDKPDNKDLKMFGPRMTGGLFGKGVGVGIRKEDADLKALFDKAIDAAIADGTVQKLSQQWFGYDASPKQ
Source text: (§4) Using 5′-[…] and 5′-[…] primers, nocT gene of A. tumefaciens C58 was amplified and then cloned into pET-9aSN1 expression vector (a gift from S. Chéruel, IBBMC, University Paris Sud, Orsay, France). The pET-9aSN1-nocT was used as template to generate directed mutations with QuikChange II XL directed mutagenesis kit (Stratagene). For mutations Met117 to Ser (M117S) and Asn (M117N), the synthetic forward primers 5′–[…] and 5′-[…] and their reverse complemented primers were designed. The nucleotide sequence of all alleles was confirmed by DNA-sequence analysis (GATC, France).
as §1

[6] = target: T3, NocT-M117S (Agrobacterium fabrum, UniProt P35120, M117S); test: KD measurement by fluorescence titration, NocT-M117S mutant; format: binding, Agrobacterium tumefaciens C58
T3 construct: The X-ray structures of the mature free-liganded NocT; made in house; host or cells: E. coli Rosetta pLysS
T3 sequence (P35120 26-283 M117S): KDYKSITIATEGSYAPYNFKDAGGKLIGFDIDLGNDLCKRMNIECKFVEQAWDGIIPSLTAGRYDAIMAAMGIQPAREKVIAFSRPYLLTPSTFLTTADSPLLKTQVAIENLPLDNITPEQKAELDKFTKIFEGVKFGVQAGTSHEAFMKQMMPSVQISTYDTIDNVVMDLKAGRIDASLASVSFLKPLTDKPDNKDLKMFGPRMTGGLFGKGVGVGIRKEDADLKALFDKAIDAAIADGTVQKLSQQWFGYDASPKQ
Source text: as §4, §1

[7] = 20°C, protein 100 to 150 µM, triplicates

For N=C(N)NCCC[C@H](N)C(=O)O [arginine, reference compound], the “KD (ITC), NocT wt” value [1, 7] was “no interaction” and the “KD (fluorescence titration), NocT wt” value [2] was “no interaction”.

N[C@@H](Cc1c[nH]cn1)C(=O)O [histidine, reference compound] was tested, and the “KD (ITC), NocT wt” value [1, 7] was “no interaction”.

For N=C(N)NCCCC(NC(CCC(=O)O)C(=O)O)C(=O)O (centres unmarked) [nopaline], the “growth of nocT mutant” value [3] was “could not grow”, the Kd [2] was 3700 nM and the “growth of ocd mutant” value [4] was “strongly impaired”.

NCCC[C@H](N)C(=O)O [ornithine, reference compound] was tested, and the “KD (ITC), NocT wt” value [1, 7] was “no interaction”.

N=C(N)NCCCC(C(=O)O)N1C(=O)CCC1C(=O)O (centres unmarked) [pyronopaline] was tested, and the Kd [5] was 39900 ± 7000 nM, the “KD fold higher than that of the WT protein, NocT-M117N” value ([5]; mutant vs WT NocT) was 76 fold and the “TΔS of binding (ITC)” value ([1]; 20°C) was 12.6 kcal/mol. The Kd ([1]; 20°C, protein 100 to 150 µM, triplicates, read-out: KD (ITC), NocT wt) was 580 ± 50 nM, the “enthalpy of binding (ITC)” value ([1]; positive enthalpy) was 2.1 kcal/mol and the Kd [6] was 37800 ± 9000 nM. The “KD fold higher than that of the WT protein, NocT-M117S” value ([6]; mutant vs WT NocT) was 76 fold, the “growth of nocT mutant” value [3] was “could not grow” and the Kd [2] was 570 nM and 600 nM. The “growth of ocd mutant” value [4] was “strongly impaired”.
